Patent publication US9187470B2, “Anti-mucus drugs and uses therefor” (Washington University, priority 2012, dated 2015)
Where two headings read alike, the source gives them in different places.

Columns and labels:
MAPK13 [1] = molecular target: T1, MAPK13 (Homo sapiens (Human), UniProt O15264); test: MAPK inhibitor assay: immobilized metal affinity polarization (IMAP) assay with activated MAPK13; format: biochemical; conditions: for MAPK13 inhibitory activity (in words): IMAP assay, FIG. 6f
Experimental: MAPK inhibitor assay. The MAPK13 blocking activity of test compounds was determined using an immobilized metal affinity polarization (IMAP) assay containing activated MAPK13, FITC-labeled substrate, and test compound. Full-length 6-His-tagged MAPK13 and constitutively active GST-MKK6 were prepared as described below. Activated MAPK13 was generated in 50 mM Hepes, 10 mM MgCl2 and 1 mM DTT, containing 1 μM MAPK13, 2 μM MKK6 and 50 μM ATP for 1 h at 25° C. MKK6 was removed by incubation with glutathione SEPHAROSE 4B beads (GE Healthcare Biosciences). […] IMAP assays were performed in 96-well non-treated half-area black plates or 384-well black plates (Corning Inc., Corning, N.Y.) in a final reaction volume of 20 μl using the linear phase of the rate kinetics. […] The reaction proceeded for 20 min at 25° C. in 10 mM Tris-HCl, 10 mM MgCl2, 0.1% BSA, 0.05% NaN3, 1 mM DT, pH 7.2 after which 60 μl of tri-valent metal nanoparticles containing IMAP binding reagent (Molecular Devices, Sunnyvale, Calif.) was added for 80 min at 25° C. The IMAP binding reagent was optimized at 1:600 (vol/vol) based on the number of acidic residues in the peptide substrate. Fluorescence polarization was measured with a Biotek Synergy 4 multimode plate reader (Biotek, Winooski, Vt.) with excitation at 485 nm and emission at 528 nm. The IC50 values for each compound were determined from the compound concentration versus fluorescence polarization (mP) plot using nonlinear curve fitting with GraphPad Prism software (Graphpad Software, La Jolla, Calif.).
MAPK purification for biochemical assays and crystallization. Full-length human MAPK13 (1-365) and MAPK13 crystallization construct (1-352) were cloned into pET28a as N-terminal 6-His-tagged constructs. […] A pET28a construct of λ-phosphatase was a gift from Dima Klenchin (University of Wisconsin, Madison, Wis.). All constructs were confirmed by sequencing and transformed into Rosetta2 (DE3) E. coli (EMD Millipore, Billerica, Mass.) and expressed as soluble proteins that were purified using the specific affinity tags followed by gel filtration chromatography. […] The final purified MAPK13 for crystallization was stored in buffer containing 20 mM Hepes pH 7.5, 150 mM NaCl, 10% glycerol, and 1 mM DTT.
In concert with this structural analysis, analogs for MAPK13 inhibitory activity were tested using an immobilized metal affinity polarization (IMAP) assay that detected fluorescence polarization as a function of remaining MAPK13 activity.

MAPK13 [2] = molecular target: T1, MAPK13; test: MAPK13/small molecule binding assay (bio-layer interferometry, Octet); conditions: for t1/2: complex half-life determined using BLI; for slow-off binding kinetics: FIG. 6d,e
Excerpt: MAPK purification for biochemical assays and crystallization. Full-length human MAPK13 (1-365) and MAPK13 crystallization construct (1-352) were cloned into pET28a as N-terminal 6-His-tagged constructs. A constitutively active mutant MKK6-GST fusion construct (GST-MKK6 Glu) was a gift from Peiqing Sun (Scripps, La Jolla, Calif.). A pET28a construct of λ-phosphatase was a gift from Dima Klenchin (University of Wisconsin, Madison, Wis.). All constructs were confirmed by sequencing and transformed into Rosetta2 (DE3) E. coli (EMD Millipore, Billerica, Mass.) and expressed as soluble proteins that were purified using the specific affinity tags followed by gel filtration chromatography. […] All buffers used during purification (lysis, column, and storage) of MAPK13 required addition of 10% glycerol and 1-5 mM reducing agent (either β-mercaptoethanol or DTT) to prevent precipitation of the recombinant protein. The final purified MAPK13 for crystallization was stored in buffer containing 20 mM Hepes pH 7.5, 150 mM NaCl, 10% glycerol, and 1 mM DTT.
MAPK13/small molecule binding assay. Kinetics of MAPK13 binding to small molecules was assessed using bio-layer interferometry with an Octet (ForteBio, Menlo Park, Calif.). Super-streptavidin-coated biosensors from ForteBio were used to capture biotinylated MAPK13 onto the surface of the sensor. After reaching baseline, sensors were moved to association step containing 2500, 1250, 625, 312.5, or 156.3 nM inhibitor for 300 s and then dissociated for 300 s. Curves were corrected by a double-referencing technique using both biotin-coated pins dipped into the experimental wells and a buffer-only reference. The running buffer consisted of 10 mM Hepes pH 7.5, 150 mM NaCl, 0.05% Tween, and 5% DMSO. Half-lives were calculated from dissociation constants determined from global kinetic analysis.

MUC5AC [3] = test: IL-13-induced MUC5AC production in primary-culture human tracheal epithelial cells (qPCR, cell-based ELISA); conditions: for IL-13-induced MUC5AC production: FIG. 6h
MUC5AC [4] = test: Doxycycline-induced MUC5AC mRNA and protein in NCI-H292-rtTA-hCLCA1 cells; format: cell-based, human; conditions: doxycycline 7.5 μg/ml for 18 h
CLCA1 = CLCA1 levels in IL-13-treated hTECs (qPCR); format: cell-based, human; conditions: IL-13 50 ng/ml, up to 21 d air-liquid interface
[5] = lower part of Table 4, IMAP-based biochemical assay, read-out: MAPK13 IC50
[6] = upper part of Table 4, 16-point inhibitor concentration-response curves, unit inferred, read-out: IC50 (IC50 values for MAPK13 inhibition)
[7] = primary-culture human airway epithelial cells

T1 sequence (O15264 whole entry): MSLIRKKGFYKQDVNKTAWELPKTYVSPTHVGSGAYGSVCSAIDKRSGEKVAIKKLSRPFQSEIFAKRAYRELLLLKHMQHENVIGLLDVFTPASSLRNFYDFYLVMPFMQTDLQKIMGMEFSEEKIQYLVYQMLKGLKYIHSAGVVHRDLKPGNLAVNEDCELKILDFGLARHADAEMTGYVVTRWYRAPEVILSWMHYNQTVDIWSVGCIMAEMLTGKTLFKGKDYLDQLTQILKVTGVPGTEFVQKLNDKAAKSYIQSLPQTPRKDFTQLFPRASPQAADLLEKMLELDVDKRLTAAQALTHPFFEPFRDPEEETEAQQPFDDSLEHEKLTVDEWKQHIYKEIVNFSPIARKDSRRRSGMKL

IC50 (MAPK13 [1]; [5]) | t1/2 (MAPK13 [2]) | SMILES | MAPK13 inhibitory activity (in words) (MAPK13 [1]) | IC50 (MAPK13 [1]; [6]) | further results
 |  | Cn1c(NC[C@@H](N)Cc2ccccc2)nc(-c2ccncc2)c(-c2ccc3ccccc3c2)c1=O [AMG-548, reference compound] | weak inhibitory activity |  | 
0.0275 µM | 20 min | Cc1ccc(-n2nc(C(C)(C)C)cc2NC(=O)Nc2ncc(CCN3CCOCC3)s2)cc1 [Analog 89, 1-[5-tert-butyl-2-(p-tolyl)pyrazol-3-yl]-3-[5-(2-morpholinoethyl)thiazol-2-yl]urea] |  |  | 
8.65 µM | 3.4 min | Cc1ccc(-n2nc(C(C)(C)C)cc2NC(=O)Nc2ccc3c(c2)CN(C(=O)C2CCOCC2)C3)cc1 [Analog 115, 1-[5-tert-butyl-2-(p-tolyl)pyrazol-3-yl]-3-[2-(tetrahydropyran-4-carbonyl)isoindolin-5-yl]urea] |  |  | Relative Dissociation kinetics (MAPK13 [2]; BLI): slow
10.2 µM | 0.0467 min | Cc1cn(-c2cccc(C(=O)Nc3ccc(Oc4ccncc4)cc3)c2)cn1 [Analog 117, 3-(4-methylimidazol-1-yl)-N-[4-(4-pyridyloxy)phenyl]benzamide] |  | 15.8 µM | MAPK13 Inhibition Biochemical Potency (MAPK13 [1]; class symbols +++, ++, +, ~, legend not given): ~; slow-off binding kinetics (MAPK13 [2]): did not
 | 0.02 min | O=C(Nc1ccc(Oc2ccncc2)cc1)c1ccnc(N2CCOCC2)c1 [Analog 124, 2-morpholino-N-[4-(4-pyridyloxy)phenyl]pyridine-4-carboxamide] |  |  | 
 |  | Cc1ccc(-n2nc(C(C)(C)C)cc2NC(=O)Nc2ccc(OCCN3CCOCC3)c3ccccc23)cc1 [BIRB-796, BIRB-796 (Doramapimod)] |  |  | IL-13-induced MUC5AC gene expression (MUC5AC [3]; hTECs, IL-13 50 ng/ml, up to 21 d air-liquid interface): markedly suppressed; doxycyline-induced MUC5AC mRNA and protein production (MUC5AC [4]): inhibited; corresponding CLCA1 levels / CLCA1 gene expression (CLCA1): without affecting
 |  | Cc1ccc(-n2nc(C(C)(C)C)cc2NC(=O)Nc2ccc(Oc3ccncc3)cc2)cc1 [Compound 62] | most potent MAPK13 inhibition | 0.281 µM | IC50 (MUC5AC [3]; IL-13-induced, primary-culture human airway epithelial cells, read-out: IC50 for blockade of mucus production): < 0.01 µM; IL-13-induced MUC5AC production (MUC5AC [3]; [7]): markedly suppressed

SMILES | IC50 (MAPK13 [1]; [5]) | t1/2 (MAPK13 [2]) | MAPK13 inhibitory activity (in words) (MAPK13 [1]) | IC50 (MAPK13 [1]; [6]) | further results
Cn1nc(C(C)(C)C)cc1NC(=O)Nc1ccc(Oc2ccncc2)cc1 [Compound 61] | 0.0827 µM | 1.85 min | most potent MAPK13 inhibition | 0.62 µM | increase in complex half-life (MAPK13 [2]; DFG-out compound 61 compared with DFG-in compound 117 (FIG. 6E)): 40 fold; slow-off binding kinetics (MAPK13 [2]): exhibited slow-off binding kinetics; IL-13-induced MUC5AC production (MUC5AC [3]; [7]): markedly suppressed
